Measured values taken from US9351955B2, “Compounds and pharmaceutical compositions thereof for the treatment of cystic fibrosis” (Galapagos NV, priority 2013, dated 2016).

Legend:
Assay type in all cases: cell-based
[1] = biological target: T1, CFTR ΔF508 mutant (Homo sapiens, UniProt P13569, DEL508-508); assay: YFP-halide influx assay for the CFTR-ΔF508 mutation (96 well, CFBE41o- cells); details: read-out: EC50 measured by YFP-halide influx assay for the CFTR-ΔF508
T1 construct: expressed in transfected cells; host or cells: CFBE41o- (adenoviral transduction)
T1 sequence (P13569 with tags, fused parts or gaps DEL508-508): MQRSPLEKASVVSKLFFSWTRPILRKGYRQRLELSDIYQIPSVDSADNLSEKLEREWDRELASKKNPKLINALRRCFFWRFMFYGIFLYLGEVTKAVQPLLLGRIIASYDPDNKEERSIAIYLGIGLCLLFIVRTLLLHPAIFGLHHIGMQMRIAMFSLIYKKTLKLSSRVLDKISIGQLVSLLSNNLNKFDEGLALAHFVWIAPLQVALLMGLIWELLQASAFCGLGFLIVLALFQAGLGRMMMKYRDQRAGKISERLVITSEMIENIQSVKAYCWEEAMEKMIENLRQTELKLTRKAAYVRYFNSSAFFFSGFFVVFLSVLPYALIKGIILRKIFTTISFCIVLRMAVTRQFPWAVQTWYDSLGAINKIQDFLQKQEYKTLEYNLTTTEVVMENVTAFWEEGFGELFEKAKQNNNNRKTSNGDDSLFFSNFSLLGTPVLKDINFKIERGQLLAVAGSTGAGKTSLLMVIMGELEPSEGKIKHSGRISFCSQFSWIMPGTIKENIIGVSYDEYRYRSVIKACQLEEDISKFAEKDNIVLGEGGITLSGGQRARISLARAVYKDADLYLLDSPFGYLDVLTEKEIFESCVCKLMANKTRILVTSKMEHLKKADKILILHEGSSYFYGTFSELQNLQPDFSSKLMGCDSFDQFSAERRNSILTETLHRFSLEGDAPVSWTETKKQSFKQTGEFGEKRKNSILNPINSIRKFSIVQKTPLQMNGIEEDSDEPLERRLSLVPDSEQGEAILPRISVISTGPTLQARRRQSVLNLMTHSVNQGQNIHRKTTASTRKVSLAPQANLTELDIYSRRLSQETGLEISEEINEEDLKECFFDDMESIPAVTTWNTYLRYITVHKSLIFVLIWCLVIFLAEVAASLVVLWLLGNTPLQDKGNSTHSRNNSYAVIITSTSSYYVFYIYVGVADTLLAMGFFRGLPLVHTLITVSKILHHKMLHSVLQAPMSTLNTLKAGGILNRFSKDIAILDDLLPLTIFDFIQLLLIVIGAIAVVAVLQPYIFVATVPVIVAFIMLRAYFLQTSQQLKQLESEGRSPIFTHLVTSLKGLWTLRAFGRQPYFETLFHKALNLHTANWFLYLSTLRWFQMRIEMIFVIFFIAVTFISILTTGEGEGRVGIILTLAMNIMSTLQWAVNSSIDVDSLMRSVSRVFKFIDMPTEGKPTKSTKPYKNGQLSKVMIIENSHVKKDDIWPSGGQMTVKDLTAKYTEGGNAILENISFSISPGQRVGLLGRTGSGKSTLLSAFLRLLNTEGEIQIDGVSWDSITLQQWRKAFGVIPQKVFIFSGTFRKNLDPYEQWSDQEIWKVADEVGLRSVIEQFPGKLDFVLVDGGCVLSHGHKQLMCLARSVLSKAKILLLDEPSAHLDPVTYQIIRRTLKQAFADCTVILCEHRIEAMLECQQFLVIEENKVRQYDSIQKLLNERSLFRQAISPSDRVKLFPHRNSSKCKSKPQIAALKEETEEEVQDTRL
Excerpt: 6.1. YFP-Halide Influx Assay for the CFTR-ΔF508 Mutation
(§1) The YFP halide influx assay measures the functionality of the cystic fibrosis Transmembrane Conductance regulator (CFTR) channels in the cystic fibrosis bronchial epithelium cell line CFBE41o-. The assay is used to evaluate the capacity of compounds to increase the open probability of existing CFTR channels in the membrane. It makes use of the observation that the yellow fluorescent protein (YFP) variant YFP H148Q, I152L has its fluorescence substantially quenched by halide ions like Cl^− and I^−. (Galietta et al., 2001; Nagai et al., 2002)
For this purpose, CFBE410-cells are seeded in 96 well plates (6000 CFBE cells/well). One day after seeding, the CFBE cells are transduced with adenoviral vectors that direct the expression of the CFTR ΔF508 mutant and of the YFP reporter. Cells are incubated at 27° C., 5% CO2 for 24 hours so as to allow for the proper folding and migration to the membrane of the CFTR channel or treated with a CFTR modulator during 24 h at 37° C.
(§2) The F induced quenching of fluorescence is recorded immediately after injection of I^− for 7 seconds. The capacity of a compound to increase the channel opening is directly correlated with the decrease in fluorescence, and is expressed as (1-(fluorescence after 7 seconds (F)/fluorescence before injection (F0))) and an EC50 can be derived from a (1−F/F0) vs compound concentration plot.

[2] = biological target: T1, CFTR ΔF508 mutant; assay: YFP-halide influx assay for the CFTR-ΔF508 mutation (384 well, CFBE41o- cells, FDSS/μCell); details: forskolin 10.67 μM, fluorescence after 36 seconds, read-out: EC50 measured by YFP-halide influx assay for the CFTR-ΔF508
Summary of the method: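 CFBE41o- cells were adenovirally transduced with ΔF508 CFTR and the YFP H148Q/I152L reporter. Cells were then held 24 h at 27 °C or treated 24 h at 37 °C with a CFTR modulator. Iodide-induced quench was recorded for 2 min, and EC50 was derived from 1−F/F0 at 36 s against compound concentration.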

[3] = biological target: T2, CFTR G551D mutant (Homo sapiens, UniProt P13569, G551D); assay: YFP-halide influx assay for the CFTR-G551D mutation (HEK293 cells); details: HEK293 cells expressing CFTR G551D and YFP reporter; forskolin 10.67 μM; read-out: EC50 measured by YFP-halide influx assay for the CFTR-G551D
T2 construct: expressed in transfected cells; host or cells: HEK293 (reverse transfection with plasmids)
T2 sequence (P13569 whole entry G551D): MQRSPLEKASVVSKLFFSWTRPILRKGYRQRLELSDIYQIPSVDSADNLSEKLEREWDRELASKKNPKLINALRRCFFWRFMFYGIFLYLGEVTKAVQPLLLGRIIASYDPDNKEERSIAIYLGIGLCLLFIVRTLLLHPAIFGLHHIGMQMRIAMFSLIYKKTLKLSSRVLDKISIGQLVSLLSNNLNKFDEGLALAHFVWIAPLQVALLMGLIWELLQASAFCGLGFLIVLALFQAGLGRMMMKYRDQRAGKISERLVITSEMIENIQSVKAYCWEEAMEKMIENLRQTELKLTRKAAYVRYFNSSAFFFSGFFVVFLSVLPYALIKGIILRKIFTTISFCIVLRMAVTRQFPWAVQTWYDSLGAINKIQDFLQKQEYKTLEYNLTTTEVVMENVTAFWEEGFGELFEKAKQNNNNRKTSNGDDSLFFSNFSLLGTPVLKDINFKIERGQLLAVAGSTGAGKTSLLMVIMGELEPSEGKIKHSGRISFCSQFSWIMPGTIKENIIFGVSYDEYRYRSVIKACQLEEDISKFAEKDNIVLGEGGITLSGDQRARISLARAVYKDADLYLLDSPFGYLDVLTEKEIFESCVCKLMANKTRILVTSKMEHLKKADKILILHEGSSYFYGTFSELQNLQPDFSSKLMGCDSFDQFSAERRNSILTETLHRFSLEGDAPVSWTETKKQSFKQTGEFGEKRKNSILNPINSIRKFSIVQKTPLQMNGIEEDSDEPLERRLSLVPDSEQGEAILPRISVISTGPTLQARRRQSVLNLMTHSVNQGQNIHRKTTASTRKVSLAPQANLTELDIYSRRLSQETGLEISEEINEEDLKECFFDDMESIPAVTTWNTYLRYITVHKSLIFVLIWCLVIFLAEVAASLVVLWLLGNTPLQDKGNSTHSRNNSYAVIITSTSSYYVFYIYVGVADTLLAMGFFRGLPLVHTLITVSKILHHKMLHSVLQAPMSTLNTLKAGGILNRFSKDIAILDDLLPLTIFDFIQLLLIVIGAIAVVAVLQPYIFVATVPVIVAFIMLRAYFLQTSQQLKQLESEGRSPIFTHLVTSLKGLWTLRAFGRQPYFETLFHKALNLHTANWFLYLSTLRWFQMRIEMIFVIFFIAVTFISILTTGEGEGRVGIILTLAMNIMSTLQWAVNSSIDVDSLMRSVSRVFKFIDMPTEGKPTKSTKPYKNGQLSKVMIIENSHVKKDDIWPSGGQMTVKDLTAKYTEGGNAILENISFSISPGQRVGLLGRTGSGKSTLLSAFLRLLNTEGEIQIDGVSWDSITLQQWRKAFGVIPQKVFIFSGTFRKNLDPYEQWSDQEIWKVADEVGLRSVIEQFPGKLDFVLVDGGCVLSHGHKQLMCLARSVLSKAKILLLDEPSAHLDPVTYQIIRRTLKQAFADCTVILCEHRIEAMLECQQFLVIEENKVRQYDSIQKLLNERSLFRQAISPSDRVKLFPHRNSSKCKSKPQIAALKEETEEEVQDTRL
Excerpt: 6.3. YFP-Halide Influx Assay for the CFTR-G551D Mutation
as §1, with “channels.” for “channels in the cystic fibrosis bronchial epithelium cell line CFBE41o-.”, “channel opening” for “open probability”, “existing mutant” for “existing”, “I152L, F47L” for “I152L”, “2001)” for “2001; Nagai et al., 2002)”
For this purpose, HEK293-cells are seeded in 96 well plates. During seeding, the cells are reverse-transfected with plasmid vectors that direct the expression of the CFTR G551D mutant and of the YFP reporter. Cells are incubated at 37° C., 5% CO2 for 24 hours so as to allow for sufficient expression of the CFTR protein.
as §2, with “I^−-induced” for “F induced”, “(1−(fluorescence” for “(1-(fluorescence”

[4] = compounds of the invention, 96 well, forskolin 10.67 μM

SMILES | EC50 ([1]; comparative compounds) [nM] | EC50 [1, 4] [nM] | EC50 [2] [nM] | EC50 [3] [nM]
NC(=O)c1c(NC(=O)c2ccccc2O)sc2c1CCNC2 [C, 2-(2-hydroxybenzamido)-4,5,6,7-tetrahydrothieno[2,3-c]pyridine-3-carboxamide, reference compound] | > 10000 |  |  | 
CC(O)C(=O)Nc1sc2c(c1C(N)=O)CC(C)(C)OC2(C)C (centres unmarked) [Compound 22, 2-(2-hydroxypropanamido)-5,5,7,7-tetramethyl-5,7-dihydro-4H-thieno[2,3-c]pyran-3-carboxamide] |  | 219 | 83 | 
CC1(C)Cc2c(sc(NC(=O)c3cccc(F)n3)c2C(N)=O)C(C)(C)O1 [Compound 24, N-(3-carbamoyl-5,5,7,7-tetramethyl-5,7-dihydro-4H-thieno[2,3-c]pyran-2-yl)-6-fluoropicolinamide] |  | 314 | 234 | 
CC1(C)Cc2c(sc(NC(=O)c3ccccc3-c3ncn[nH]3)c2C(N)=O)C(C)(C)O1 [Compound 26, 2-(2-(1H-1,2,4-triazol-5-yl)benzamido)-5,5,7,7-tetramethyl-5,7-dihydro-4H-thieno[2,3-c]pyran-3-carboxamide] |  | 1270 |  | 
CC1(C)Cc2c(sc(NC(=O)C3CNC(=O)C3)c2C(N)=O)C(C)(C)O1 (centres unmarked) [Compound 29, N-(3-carbamoyl-5,5,7,7-tetramethyl-5,7-dihydro-4H-thieno[2,3-c]pyran-2-yl)-5-oxopyrrolidine-3-carboxamide] |  | 10000 |  | 
CC1(C)Cc2c(sc(NC(=O)c3ccnn3C(F)F)c2C(N)=O)C(C)(C)O1 [Compound 115, N-(3-carbamoyl-5,5,7,7-tetramethyl-4H-thieno[2,3-c]pyran-2-yl)-2-(difluoromethyl)pyrazole-3-carboxamide] |  |  | 62.1 | 586
CC1(C)Cc2c(sc(NC(=O)c3nn(C(F)F)cc3Cl)c2C(N)=O)C(C)(C)O1 [Compound 116, N-(3-carbamoyl-5,5,7,7-tetramethyl-4H-thieno[2,3-c]pyran-2-yl)-4-chloro-1-(difluoromethyl)pyrazole-3-carboxamide] |  |  | 88 | 1520
Cn1cc(C(=O)Nc2sc3c(c2C(N)=O)CC(C)(C)OC3(C)C)c(C(F)F)n1 [Compound 117, N-(3-carbamoyl-5,5,7,7-tetramethyl-4H-thieno[2,3-c]pyran-2-yl)-3-(difluoromethyl)-1-methyl-pyrazole-4-carboxamide] |  |  | 239 | 6660
Cn1ccc(C(=O)Nc2sc3c(c2C(N)=O)CC(C)(C)OC3(C)C)n1 [Compound 119, N-(3-carbamoyl-5,5,7,7-tetramethyl-4H-thieno[2,3-c]pyran-2-yl)-1-methyl-pyrazole-3-carboxamide] |  |  | 159 | 2170
Cn1nccc1C(=O)Nc1sc2c(c1C(N)=O)CC(C)(C)OC2(C)C [Compound 120, N-(3-carbamoyl-5,5,7,7-tetramethyl-4H-thieno[2,3-c]pyran-2-yl)-2-methyl-pyrazole-3-carboxamide] |  |  | 121 | 2410
CC1(C)Cc2c(sc(NC(=O)c3cccc(C(F)F)c3)c2C(N)=O)C(C)(C)O1 [Compound 122, 2-[[3-(difluoromethyl)benzoyl]amino]-5,5,7,7-tetramethyl-4H-thieno[2,3-c]pyran-3-carboxamide] |  |  | 41.7 | 2380
CC1(C)Cc2c(sc(NC(=O)c3ccccc3C(F)F)c2C(N)=O)C(C)(C)O1 [Compound 123, 2-[[2-(difluoromethyl)benzoyl]amino]-5,5,7,7-tetramethyl-4H-thieno[2,3-c]pyran-3-carboxamide] |  |  | 87.9 | 825
CC1(C)Cc2c(sc(NC(=O)C3(C)CC(F)(F)C3)c2C(N)=O)C(C)(C)O1 [Compound 124, 2-[(3,3-difluoro-1-methyl-cyclobutanecarbonyl)amino]-5,5,7,7-tetramethyl-4H-thieno[2,3-c]pyran-3-carboxamide] |  |  | 40.6 | 685
Cc1nc(C(=O)Nc2sc3c(c2C(N)=O)CC(C)(C)OC3(C)C)co1 [Compound 125, N-(3-carbamoyl-5,5,7,7-tetramethyl-4H-thieno[2,3-c]pyran-2-yl)-2-methyl-oxazole-4-carboxamide] |  |  | 194 | 3330
CC1(C)Cc2c(sc(NC(=O)c3ccn(CC(F)F)n3)c2C(N)=O)C(C)(C)O1 [Compound 126, N-(3-carbamoyl-5,5,7,7-tetramethyl-4H-thieno[2,3-c]pyran-2-yl)-1-(2,2-difluoroethyl)pyrazole-3-carboxamide] |  |  | 555 | 3330
CC1(C)Cc2c(sc(NC(=O)c3cscn3)c2C(N)=O)C(C)(C)O1 [Compound 128, N-(3-carbamoyl-5,5,7,7-tetramethyl-4H-thieno[2,3-c]pyran-2-yl)thiazole-4-carboxamide] |  |  | 34.2 | 878
CC1(C)Cc2c(sc(NC(=O)c3cocn3)c2C(N)=O)C(C)(C)O1 [Compound 129, N-(3-carbamoyl-5,5,7,7-tetramethyl-4H-thieno[2,3-c]pyran-2-yl)oxazole-4-carboxamide] |  |  | 77.3 | 2290
CC1(C)Cc2c(sc(NC(=O)c3ccno3)c2C(N)=O)C(C)(C)O1 [Compound 133, N-(3-carbamoyl-5,5,7,7-tetramethyl-4H-thieno[2,3-c]pyran-2-yl)isoxazole-5-carboxamide] |  |  | 552 | 3330
CC1(C)Cc2c(sc(NC(=O)c3cncs3)c2C(N)=O)C(C)(C)O1 [Compound 134, N-(3-carbamoyl-5,5,7,7-tetramethyl-4H-thieno[2,3-c]pyran-2-yl)thiazole-5-carboxamide] |  |  | 78.6 | 2020
Cc1ncoc1C(=O)Nc1sc2c(c1C(N)=O)CC(C)(C)OC2(C)C [Compound 135, N-(3-carbamoyl-5,5,7,7-tetramethyl-4H-thieno[2,3-c]pyran-2-yl)-4-methyl-oxazole-5-carboxamide] |  |  | 138 | 2030
Cn1ncc(C(=O)Nc2sc3c(c2C(N)=O)CC(C)(C)OC3(C)C)c1C(F)(F)F [Compound 137, N-(3-carbamoyl-5,5,7,7-tetramethyl-4H-thieno[2,3-c]pyran-2-yl)-1-methyl-5-(trifluoromethyl)pyrazole-4-carboxamide] |  |  | 128 | 2660
CCCCc1ccc(C(=O)Nc2sc3c(c2C(N)=O)CC(C)(C)OC3(C)C)c(=O)[nH]1 [Compound 139, 6-butyl-N-(3-carbamoyl-5,5,7,7-tetramethyl-4H-thieno[2,3-c]pyran-2-yl)-2-oxo-1H-pyridine-3-carboxamide] |  |  | 57 | 577
Cc1cnc(C(=O)Nc2sc3c(c2C(N)=O)CC(C)(C)OC3(C)C)cn1 [Compound 141, N-(3-carbamoyl-5,5,7,7-tetramethyl-4H-thieno[2,3-c]pyran-2-yl)-5-methyl-pyrazine-2-carboxamide] |  |  | 99.5 | 1620
Cc1ccc(C(=O)Nc2sc3c(c2C(N)=O)CC(C)(C)OC3(C)C)cn1 [Compound 143, N-(3-carbamoyl-5,5,7,7-tetramethyl-4H-thieno[2,3-c]pyran-2-yl)-6-methyl-pyridine-3-carboxamide] |  |  | 153 | 2710
CC1(C)Cc2c(sc(NC(=O)[C@](C)(O)C(F)(F)F)c2C(N)=O)C(C)(C)O1 [Compound 152, 5,5,7,7-tetramethyl-2-[[(2S)-3,3,3-trifluoro-2-hydroxy-2-methyl-propanoyl]amino]-4H-thieno[2,3-c]pyran-3-carboxamide] |  |  | 12 | 2160
